*1 amine or outer side, *2 acyl side, *3 side chain or, on linkers, in order; H or OH if unused. Where a SMILES comes first, the peptide text is derived from it. Side-chain parts run from the residue outwards. The star is where a group is joined. C18 diacid = O=C(O)CCCCCCCCCCCCCCCCC(=O)*; γGlu = O=C(O)[C@H](CCC(=O)[*:2])N[*:1]; Isovaleryl = CC(C)CC(=O)*; AEEA = NCCOCCOCC(=O)O
These molecules were tested against T1, Human Neuropeptide Y2 Receptor (Homo sapiens, UniProt P49146) (assay: Radioligand binding competition assay (RLB)). Details: Table 3; human 125I-PYY (1-36) 0.02 nM, Y2 receptor membranes; read-out: Ki.
T1 construct: purchased CHEMICON HTS066M
T1 sequence (P49146 1-381): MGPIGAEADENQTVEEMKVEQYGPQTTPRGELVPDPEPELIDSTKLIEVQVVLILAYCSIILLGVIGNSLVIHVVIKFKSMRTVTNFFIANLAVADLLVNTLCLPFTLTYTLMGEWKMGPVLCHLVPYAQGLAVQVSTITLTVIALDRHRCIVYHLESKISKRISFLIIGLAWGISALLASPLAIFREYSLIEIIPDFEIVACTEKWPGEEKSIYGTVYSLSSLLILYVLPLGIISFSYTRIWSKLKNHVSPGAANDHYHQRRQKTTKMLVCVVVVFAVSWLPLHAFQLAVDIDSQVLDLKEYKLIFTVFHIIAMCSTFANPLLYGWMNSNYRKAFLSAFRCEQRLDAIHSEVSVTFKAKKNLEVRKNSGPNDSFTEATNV
Summary of the method: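 Competition binding at commercial human NPY Y2 membrane preparations, 0.5 μg protein per well, 2 h incubation at room temperature. Bound and free ligand were separated on GF/C filters and counted; IC50 was fitted by nonlinear regression.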

Row | Ki [nM] | Structure (SMILES)
1 | 4.64 | CC(C)CC(=O)N[C@@H](C)C(=O)N1CCC[C@H]1C(=O)N[C@@H](CCC(=O)O)C(=O)N[C@@H](CCCCNC(=O)COCCOCCNC(=O)COCCOCCNC(=O)CC[C@H](NC(=O)CCCCCCCCCCCCCCCCC(=O)O)C(=O)O)C(=O)N1CCC[C@H]1C(=O)NCC(=O)N[C@@H](CCC(=O)O)C(=O)N[C@@H](CCC(=O)O)C(=O)N[C@@H](C)C(=O)N[C@@H](CO)C(=O)N1CCC[C@H]1C(=O)N[C@@H](CCC(=O)O)C(=O)N[C@@H](CCC(=O)O)C(=O)N[C@@H](CC(C)C)C(=O)N[C@@H](CCC(=O)O)C(=O)N[C@@H](CCC(N)=O)C(=O)N[C@@H](Cc1ccc(O)cc1)C(=O)N[C@@H](Cc1ccc(O)cc1)C(=O)N[C@H](C(=O)N[C@@H](CO)C(=O)N[C@@H](CC(C)C)C(=O)N[C@@H](CCCNC(=N)N)C(=O)N[C@@H](Cc1c[nH]cn1)C(=O)N[C@@H](Cc1ccc(O)cc1)C(=O)N[C@@H](Cc1ccc(O)cc1)C(=O)N[C@@H](CC(N)=O)C(=O)N[C@@H](Cc1c[nH]c2ccccc12)C(=O)N[C@@H](CC(C)C)C(=O)N[C@H](C(=O)N[C@@H](CCCNC(=N)N)C(=O)N[C@@H](CCC(N)=O)C(=O)N[C@@H](CCCNC(=N)N)C(=O)N[C@@H](Cc1ccc(O)cc1)C(N)=O)[C@@H](C)O)C(C)C [Compound 224, N{alpha-4}-(3-methylbutanoyl)-N{epsilon-7}-[2-(2-{2-[2-(2-{2-[(4S)-4-carboxy-4-(17-carboxyheptadecanamido)butanamido]ethoxy}ethoxy)acetamido]ethoxy}ethoxy)acetamido]-[4A,7K,11E,18E,19Q,22V,28Y,30W,31L]hPYY (4-36)] (Isovaleryl-APEK([AEEA-AEEA-γGlu-C18 diacid])PGEEASPEELEQYYVSLRHYYNWLTRQRY-NH2)
2 | 1.21 | CC(C)CC(=O)N[C@@H](C)C(=O)N1CCC[C@H]1C(=O)N[C@@H](CCC(=O)O)C(=O)N[C@@H](CCCCNC(=O)COCCOCCNC(=O)COCCOCCNC(=O)CC[C@H](NC(=O)CCCCCCCCCCCCCCCCC(=O)O)C(=O)O)C(=O)N1CCC[C@H]1C(=O)N[C@@H](CCC(=O)O)C(=O)N[C@@H](CCC(=O)O)C(=O)N[C@@H](C)C(=O)N[C@@H](C)C(=O)N[C@@H](CO)C(=O)N1CCC[C@H]1C(=O)N[C@@H](CCC(=O)O)C(=O)N[C@@H](CCC(=O)O)C(=O)N[C@H](C(=O)N[C@@H](CCC(N)=O)C(=O)N[C@@H](CCCNC(=N)N)C(=O)N[C@@H](Cc1ccc(O)cc1)C(=O)N[C@@H](Cc1ccc(O)cc1)C(=O)N[C@H](C(=O)N[C@@H](CO)C(=O)N[C@@H](CC(C)C)C(=O)N[C@@H](CCCNC(=N)N)C(=O)N[C@@H](Cc1c[nH]cn1)C(=O)N[C@@H](Cc1ccc(O)cc1)C(=O)N[C@@H](Cc1ccc(O)cc1)C(=O)N[C@@H](CC(N)=O)C(=O)N[C@@H](Cc1c[nH]c2ccccc12)C(=O)N[C@@H](CC(C)C)C(=O)N[C@H](C(=O)N[C@@H](CCCNC(=N)N)C(=O)N[C@@H](CCC(N)=O)C(=O)N[C@@H](CCCNC(=N)N)C(=O)N[C@@H](Cc1ccc(O)cc1)C(N)=O)[C@@H](C)O)C(C)C)[C@@H](C)O [Compound 226, N{alpha-4}-(3-methylbutanoyl)-N{epsilon-7}-[2-(2-{2-[2-(2-{2-[(4S)-4-carboxy-4-(17-carboxyheptadecanamido)butanamido]ethoxy}ethoxy)acetamido]ethoxy}ethoxy)acetamido]-[4A,7K,9E,11A,17T,18Q,22V,28Y,30W,31L]hPYY (4-36)]
3 | 12.3 | CC(C)CC(=O)N[C@@H](C)C(=O)N1CCC[C@H]1C(=O)N[C@@H](CCC(=O)O)C(=O)N[C@@H](CCCCNC(=O)COCCOCCNC(=O)COCCOCCNC(=O)CC[C@H](NC(=O)CCCCCCCCCCCCCCCCC(=O)O)C(=O)O)C(=O)N[C@@H](C)C(=O)N[C@@H](CCC(=O)O)C(=O)N[C@@H](CCC(=O)O)C(=O)N[C@@H](CC(=O)O)C(=O)N[C@@H](C)C(=O)N[C@@H](CO)C(=O)N1CCC[C@H]1C(=O)N[C@@H](CCC(=O)O)C(=O)N[C@@H](CCC(=O)O)C(=O)N[C@@H](CC(C)C)C(=O)N[C@@H](CCC(=O)O)C(=O)N[C@@H](CCC(N)=O)C(=O)N[C@@H](Cc1ccc(O)cc1)C(=O)N[C@@H](Cc1ccc(O)cc1)C(=O)N[C@H](C(=O)N[C@@H](CO)C(=O)N[C@@H](CC(C)C)C(=O)N[C@@H](CCCNC(=N)N)C(=O)N[C@@H](Cc1c[nH]cn1)C(=O)N[C@@H](Cc1ccc(O)cc1)C(=O)N[C@@H](Cc1ccc(O)cc1)C(=O)N[C@@H](CC(N)=O)C(=O)N[C@@H](Cc1c[nH]c2ccccc12)C(=O)N[C@@H](CC(C)C)C(=O)N[C@H](C(=O)N[C@@H](CCCNC(=N)N)C(=O)N[C@@H](CCC(N)=O)C(=O)N[C@@H](CCCNC(=N)N)C(=O)N[C@@H](Cc1ccc(O)cc1)C(N)=O)[C@@H](C)O)C(C)C [Compound 227, N{alpha-4}-(3-methylbutanoyl)-N{epsilon-7}-[2-(2-{2-[2-(2-{2-[(4S)-4-carboxy-4-(17-carboxyheptadecanamido)butanamido]ethoxy}ethoxy)acetamido]ethoxy}ethoxy)acetamido]-[4A,7K,8A,9E,18E,19Q,22V,28Y,30W,31L]hPYY (4-36)] (Isovaleryl-APEK([AEEA-AEEA-γGlu-C18 diacid])AEEDASPEELEQYYVSLRHYYNWLTRQRY-NH2)
4 | 2.84 | CC(C)CC(=O)N[C@@H](C)C(=O)N1CCC[C@H]1C(=O)N[C@@H](CCC(=O)O)C(=O)N[C@@H](CCCCNC(=O)COCCOCCNC(=O)COCCOCCNC(=O)CC[C@H](NC(=O)CCCCCCCCCCCCCCCCC(=O)O)C(=O)O)C(=O)N1CCC[C@H]1C(=O)N[C@@H](CCC(=O)O)C(=O)N[C@@H](CCC(=O)O)C(=O)N[C@@H](CC(=O)O)C(=O)N[C@@H](C)C(=O)N[C@@H](CO)C(=O)N1CCC[C@H]1C(=O)N[C@@H](CCC(=O)O)C(=O)N[C@@H](CCC(=O)O)C(=O)N[C@@H](CC(C)C)C(=O)N[C@@H](CCC(N)=O)C(=O)N[C@@H](CCCNC(=N)N)C(=O)N[C@@H](Cc1ccc(O)cc1)C(=O)N[C@@H](Cc1ccc(O)cc1)C(=O)N[C@H](C(=O)N[C@@H](CO)C(=O)N[C@@H](C)C(=O)N[C@@H](CCCNC(=N)N)C(=O)N[C@@H](Cc1c[nH]cn1)C(=O)N[C@@H](Cc1ccc(O)cc1)C(=O)N[C@@H](Cc1ccc(O)cc1)C(=O)N[C@@H](CC(N)=O)C(=O)N[C@@H](Cc1c[nH]c2ccccc12)C(=O)N[C@@H](CC(C)C)C(=O)N[C@H](C(=O)N[C@@H](CCCNC(=N)N)C(=O)N[C@@H](CCC(N)=O)C(=O)N[C@@H](CCCNC(=N)N)C(=O)N[C@@H](Cc1ccc(O)cc1)C(N)=O)[C@@H](C)O)C(C)C [Compound 229, N{alpha-4}-(3-methylbutanoyl)-N{epsilon-7}-[2-(2-{2-[2-(2-{2-[(4S)-4-carboxy-4-(17-carboxyheptadecanamido)butanamido]ethoxy}ethoxy)acetamido]ethoxy}ethoxy)acetamido]-[4A,7K,9E,18Q,22V,24A,28Y,30W,31L]hPYY (4-36)]
5 | 0.81 | CC(C)CC(=O)N[C@@H](C)C(=O)N1CCC[C@H]1C(=O)N[C@@H](C)C(=O)N[C@@H](CCCCNC(=O)COCCOCCNC(=O)COCCOCCNC(=O)CC[C@H](NC(=O)CCCCCCCCCCCCCCCCC(=O)O)C(=O)O)C(=O)N1CCC[C@H]1C(=O)N1CCC[C@H]1C(=O)N[C@@H](CCC(=O)O)C(=O)N[C@@H](CC(=O)O)C(=O)N[C@@H](C)C(=O)N[C@@H](CO)C(=O)N1CCC[C@H]1C(=O)N[C@@H](CCC(=O)O)C(=O)N[C@@H](CCC(=O)O)C(=O)N[C@@H](CC(C)C)C(=O)N[C@@H](CCC(N)=O)C(=O)N[C@@H](CCCNC(=N)N)C(=O)N[C@@H](Cc1ccc(O)cc1)C(=O)N[C@@H](Cc1ccc(O)cc1)C(=O)N[C@H](C(=O)N[C@@H](CCC(=O)O)C(=O)N[C@@H](CC(C)C)C(=O)N[C@@H](CCCNC(=N)N)C(=O)N[C@@H](Cc1c[nH]cn1)C(=O)N[C@@H](Cc1ccc(O)cc1)C(=O)N[C@@H](Cc1ccc(O)cc1)C(=O)N[C@@H](CC(N)=O)C(=O)N[C@@H](Cc1c[nH]c2ccccc12)C(=O)N[C@@H](CC(C)C)C(=O)N[C@H](C(=O)N[C@@H](CCCNC(=N)N)C(=O)N[C@@H](CCC(N)=O)C(=O)N[C@@H](CCCNC(=N)N)C(=O)N[C@@H](Cc1ccc(O)cc1)C(N)=O)[C@@H](C)O)C(C)C [Compound 232, N{alpha-4}-(3-methylbutanoyl)-N{epsilon-7}-[2-(2-{2-[2-(2-{2-[(4S)-4-carboxy-4-(17-carboxyheptadecanamido)butanamido]ethoxy}ethoxy)acetamido]ethoxy}ethoxy)acetamido]-[4A,6A,7K,9P,18Q,22V,23E,28Y,30W,31L]hPYY (4-36)]

From patent publication US12559529B2, “NPY2 receptor agonists” (Boehringer Ingelheim International GmbH, priority 2019, dated 2026)
